Here are results for 25 compounds from patent US8846713B2, “Fused heterocyclic compounds as phosphodiesterases (PDEs) inhibitors” (Takeda Pharmaceutical Company Limited, priority 2010, dated 2014).

Where a name gives a salt, the structure may show the parent alone.

In one data set the target is T1, Human PDE10A enzyme (Homo sapiens, UniProt Q9Y233).
T1 construct: transfected with the full-length gene; His-tag; made in house; host or cells: Sf9 or COS-7 cells
Nature of the data set: PDE enzyme inhibition, SPA (Scintillation Proximity Assay) with [3H]cGMP. The format is biochemical. The conditions noted are these: [3H]cGMP substrate; for inhibition at 1 µM: compound 1 μM, read-out: Percent inhibition (1 μM); for inhibition at 10 µM: compound 10 μM, read-out: Percent inhibition (10 μM). Here is the method: Human PDE10A enzyme was generated from Sf9 or COS-7 cells transfected with the full-length gene. Cloned enzyme was extracted from homogenized cell pellets. The extracted enzyme from sf9 cells was partially purified using His-tag affinity column. The enzyme was stored at −70° C. until use. PDE activity was measured using a SPA (Scintillation Proximity Assay) (GE Healthcare). To evaluate the inhibitory activity, 10 μL of serial diluted compounds were incubated with 20 μL of PDE enzyme in assay buffer (50 mM HEPES-NaOH, 8.3 mM MgCl2, 1.7 mM EGTA, 0.1% BSA (pH 7.4)) for 30 min. at room temperature. Final concentration of DMSO in the assay was 1 percent as compounds were tested in duplicate in 96-well half-area plates (Corning). To start the reaction, 10 μL of substrate [^3H] cGMP (25 or 50 nM; enclosed in SPA kits from GE Healthcare or purchased from PerkinElmer, respectively) was added for a final assay volume of 40 μL. After 60 min incubation at room temperature, yttrium SPA beads containing Zinc sulphate were added (20 μL at 6 mg/mL) to terminate the PDE reaction. After being settled for 60 min, assay plates were counted in a scintillation counter (PerkinElmer) to allow calculation of inhibition rate. Inhibition rate was calculated on the basis of 0% control wells with DMSO and 100% control wells without enzyme.

T1 sequence (Q9Y233 267-1055): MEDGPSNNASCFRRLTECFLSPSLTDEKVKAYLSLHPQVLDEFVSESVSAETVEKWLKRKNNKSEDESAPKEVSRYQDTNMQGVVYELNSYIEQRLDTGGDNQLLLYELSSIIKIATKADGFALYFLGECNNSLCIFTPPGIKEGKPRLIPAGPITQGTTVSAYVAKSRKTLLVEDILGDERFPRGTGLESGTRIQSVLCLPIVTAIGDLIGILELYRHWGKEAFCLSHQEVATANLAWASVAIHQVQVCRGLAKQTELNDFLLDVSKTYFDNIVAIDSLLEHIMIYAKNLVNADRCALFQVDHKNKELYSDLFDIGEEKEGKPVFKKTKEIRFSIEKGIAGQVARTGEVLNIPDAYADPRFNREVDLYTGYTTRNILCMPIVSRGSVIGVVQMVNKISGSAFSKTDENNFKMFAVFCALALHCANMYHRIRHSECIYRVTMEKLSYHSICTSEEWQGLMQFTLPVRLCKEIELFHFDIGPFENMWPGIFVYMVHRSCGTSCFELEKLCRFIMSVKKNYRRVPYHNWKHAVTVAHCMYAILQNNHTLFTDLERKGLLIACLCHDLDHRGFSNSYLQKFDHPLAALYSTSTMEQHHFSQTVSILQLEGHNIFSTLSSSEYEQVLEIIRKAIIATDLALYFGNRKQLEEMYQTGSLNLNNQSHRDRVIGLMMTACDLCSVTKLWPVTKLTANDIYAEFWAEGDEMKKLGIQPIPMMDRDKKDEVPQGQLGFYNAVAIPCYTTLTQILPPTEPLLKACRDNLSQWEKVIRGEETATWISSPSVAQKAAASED

Compound `Cc1cnc2c(c1)n(C(C)C)c(=O)n2-c1ccc(Oc2nc3cccnc3n2C)cc1` [Example 122, 6-methyl-1-(1-methylethyl)-3-{4-[(3-methyl-3H-imidazo[4,5-b]pyridin-2-yl)oxy]phenyl}-1,3-dihydro-2H-imidazo[4,5-b]pyridin-2-one] had a melting point of 252 °C. Also, on Human PDE10A enzyme, the inhibition at 1 µM amounted to 109% and the inhibition at 10 µM came to 107%.
The like results for `CCn1c(=O)n(-c2ccc(Oc3nc4ccccc4n3C)cc2)c2ncncc21` [Example 125, 7-ethyl-9-{4-[(1-methyl-1H-benzimidazol-2-yl)oxy]phenyl}-7,9-dihydro-8H-purin-8-one] were, in that order, 242 to 243 °C, 99% and 101%.
The like results for `CCn1c(=O)n(-c2ccc(-n3ccn4c5ccccc5nc34)cc2)c2ncccc21` [Example 65, 1-Ethyl-3-[4-(1H-imidazo[1,2-a]benzimidazol-1-yl)phenyl]-1,3-dihydro-2H-imidazo[4,5-b]pyridin-2-one] were, in that order, 220 to 221 °C, 100% and 101%.
The like results for `CCn1c(=O)n(-c2ccc(Oc3nc4ccccc4n3C)cc2)c2ncc(Cl)cc21` [Example 106, 6-chloro-1-ethyl-3-{4-[(1-methyl-1H-benzimidazol-2-yl)oxy]phenyl}-1,3-dihydro-2H-imidazo[4,5-b]pyridin-2-one] were, in that order, 208 to 210 °C, 103% and 102%.
`CCn1c(=O)n(-c2ccc(Oc3nc4cccnc4n3C)cc2)c2ncc(OCC(F)F)cc21` [Example 128, 6-(2,2-difluoroethoxy)-1-ethyl-3-{4-[(3-methyl-3H-imidazo[4,5-b]pyridin-2-yl)oxy]phenyl}-1,3-dihydro-2H-imidazo[4,5-b]pyridin-2-one] registered a melting point of 171 to 172 °C. For the same compound, on Human PDE10A enzyme, the inhibition at 1 µM was 94% and the inhibition at 10 µM was 91%.
For `CCn1c(=O)n(-c2ccc(Oc3nc4cccnc4n3C)cc2)c2nccc(CO)c21` [Example 138, 1-ethyl-7-(hydroxymethyl)-3-{4-[(3-methyl-3H-imidazo[4,5-b]pyridin-2-yl)oxy]phenyl}-1,3-dihydro-2H-imidazo[4,5-b]pyridin-2-one], on Human PDE10A enzyme, the inhibition at 1 µM stood at 93% and the inhibition at 10 µM stood at 105%.
On to `CCn1c(=O)n(-c2ccc(Oc3nc4cccnc4n3C)cc2)c2c1c(C)cc[n+]2[O-]` [Example 136, 1-ethyl-7-methyl-3-{4-[(3-methyl-3H-imidazo[4,5-b]pyridin-2-yl)oxy]phenyl}-1,3-dihydro-2H-imidazo[4,5-b]pyridin-2-one 4-oxide], for which, on Human PDE10A enzyme, the inhibition at 1 µM was found to be 81% and the inhibition at 10 µM is 98%.
With `CCn1c(=O)n(-c2ccc(Oc3cn4ccccc4n3)cc2)c2ncccc21` [Example 31, 1-ethyl-3-[4-(imidazo[1,2-a]pyridin-2-yloxy)phenyl]-1,3-dihydro-2H-imidazo[4,5-b]pyridin-2-one], on Human PDE10A enzyme, the inhibition at 1 µM is 99% and the inhibition at 10 µM came out at 98%.
The corresponding values for `CCn1c(=O)n(-c2ccc(Oc3nc4cccnc4n3C)cc2)c2nccc(C)c21` [Example 120, 1-ethyl-7-methyl-3-{4-[(3-methyl-3H-imidazo[4,5-b]pyridin-2-yl)oxy]phenyl}-1,3-dihydro-2H-imidazo[4,5-b]pyridin-2-one] are 109% and 106%.
Turning to `CC1(C)C(=O)N(c2ccc(Oc3nc4ccccc4[nH]3)cc2)c2ncccc21` [Example 9, 1-[4-(1H-benzimidazol-2-yloxy)phenyl]-3,3-dimethyl-1,3-dihydro-2H-pyrrolo[2,3-b]pyridin-2-one dihydrochloride], on Human PDE10A enzyme, the inhibition at 1 µM stood at 99% and the inhibition at 10 µM was 99%.
Turning to `O=c1[nH]c2cccnc2n1-c1ccc(N2CCn3c2nc2ccccc23)cc1` [Example 2, 3-[4-(2,3-dihydro-1H-imidazo[1,2-a]benzimidazol-1-yl)phenyl]-1,3-dihydro-2H-imidazo[4,5-b]pyridin-2-one], on Human PDE10A enzyme, the inhibition at 1 µM was 104% and the inhibition at 10 µM was found to be 103%.
With `CCn1c(=O)n(-c2ccc3c(c2)CCN3c2nc3cccnc3[nH]2)c2ncccc21` [Example 71, 1-ethyl-3-[1-(3H-imidazo[4,5-b]pyridin-2-yl)-2,3-dihydro-1H-indol-5-yl]-1,3-dihydro-2H-imidazo[4,5-b]pyridin-2-one], at Human PDE10A enzyme, the inhibition at 1 µM turned out to be 99% and the inhibition at 10 µM was 97%.
For `CCn1c(=O)n(-c2ccc(Nc3nc4ccc(F)cc4o3)cc2)c2ncccc21` [Example 27, 1-ethyl-3-{4-[(6-fluoro-1,3-benzoxazol-2-yl)amino]phenyl)-1,3-dihydro-2H-imidazo[4,5-b]pyridin-2-one], the inhibition at 0.1 µM on Human PDE10A enzyme (compound 0.1 μM, read-out: Percent inhibition (0.1 μM)) was 102%.
`CCn1c(=O)n(-c2ccc(Oc3nc4cccnc4n3C)cc2)c2nccc(COC(C)=O)c21` [Example 137, (1-ethyl-3-{4-[(3-methyl-3H-imidazo[4,5-b]pyridin-2-yl)oxy]phenyl}-2-oxo-2,3-dihydro-1H-imidazo[4,5-b]pyridin-7-yl)methyl acetate]: at Human PDE10A enzyme, the inhibition at 1 µM came out at 88% and the inhibition at 10 µM came to 98%.
Turning to `CCn1c(=O)n(-c2ccc(Oc3nc4cccnc4n3C)cc2)c2ncc(C#N)cc21` [Example 108, 1-ethyl-3-{4-[(3-methyl-3H-imidazo[4,5-b]pyridin-2-yl)oxy]phenyl}-2-oxo-2,3-dihydro-1H-imidazo[4,5-b]pyridine-6-carbonitrile], on Human PDE10A enzyme, the inhibition at 1 µM worked out at 100% and the inhibition at 10 µM was found to be 102%.
For the compound `CCn1c(=O)n(-c2ccc3c(c2)CCN3c2nc3ccccc3n2C)c2ncccc21` [Example 48, 1-ethyl-3-[1-(1-methyl-1H-benzimidazol-2-yl)-2,3-dihydro-1H-indol-5-yl]-1,3-dihydro-2H-imidazo[4,5-b]pyridin-2-one], on Human PDE10A enzyme, the inhibition at 1 µM stood at 96% and the inhibition at 10 µM was found to be 100%.
The like results for `CCn1c(=O)n(-c2ccc(Oc3nc4cccnc4n3C)cc2)c2ncc(F)cc21` [Example 133, 1-ethyl-6-fluoro-3-{4-[(3-methyl-3H-imidazo[4,5-b]pyridin-2-yl)oxy]phenyl}-1,3-dihydro-2H-imidazo[4,5-b]pyridin-2-one] were, in that order, 104% and 101%.
For the compound `CCn1c(=O)n(-c2ccc(Oc3nc4c(n3C)CCCC4)cc2)c2ncccc21` [Example 112, 1-ethyl-3-{4-[(1-methyl-4,5,6,7-tetrahydro-1H-benzimidazol-2-yl)oxy]phenyl}-1,3-dihydro-2H-imidazo[4,5-b]pyridin-2-one], on Human PDE10A enzyme, the inhibition at 1 µM was found to be 99% and the inhibition at 10 µM was found to be 98%.
As for `CCCn1c(=O)n(-c2ccc(Oc3nc4cccnc4n3C)cc2)c2ncccc21` [Example 97, 3-{4-[(3-methyl-3H-imidazo[4,5-b]pyridin-2-yl)oxy]phenyl}-1-propyl-1,3-dihydro-2H-imidazo[4,5-b]pyridin-2-one], at Human PDE10A enzyme, the inhibition at 1 µM stood at 97% and the inhibition at 10 µM came to 98%.
As for `CCn1c(=O)n(-c2ccc(Oc3nc4ccccc4[nH]3)cc2)c2nccc(C)c21` [Example 64, 3-[4-(1H-benzimidazol-2-yloxy)phenyl]-1-ethyl-7-methyl-1,3-dihydro-2H-imidazo[4,5-b]pyridin-2-one dihydrochloride], on Human PDE10A enzyme, the inhibition at 1 µM turned out to be 100% and the inhibition at 10 µM is 101%.
Take `CC(C)n1c(=O)n(-c2ccc3c(c2)CCN3c2nc3cccnc3[nH]2)c2ncccc21` [Example 72, 3-[1-(3H-imidazo[4,5-b]pyridin-2-yl)-2,3-dihydro-1H-indol-5-yl]-1-(1-methylethyl)-1,3-dihydro-2H-imidazo[4,5-b]pyridin-2-one]: at Human PDE10A enzyme, the inhibition at 1 µM amounted to 104% and the inhibition at 10 µM worked out at 110%.
Consider `CCn1c(=O)n(-c2ccc(Oc3cn4ccccc4n3)cc2)c2ncc(C)cc21` [Example 124, 1-ethyl-3-[4-(imidazo[1,2-a]pyridin-2-yloxy)phenyl]-6-methyl-1,3-dihydro-2H-imidazo[4,5-b]pyridin-2-one], for which, at Human PDE10A enzyme, the inhibition at 1 µM stood at 99% and the inhibition at 10 µM turned out to be 99%.
With `Cn1c(Oc2ccc(-n3c(=O)n(C4CC4)c4cccnc43)cc2)nc2ccccc21` [Example 103, 1-cyclopropyl-3-{4-[(1-methyl-1H-benzimidazol-2-yl)oxy]phenyl}-1,3-dihydro-2H-imidazo[4,5-b]pyridin-2-one], at Human PDE10A enzyme, the inhibition at 1 µM came to 101% and the inhibition at 10 µM was 103%.
Regarding `CCn1c(=O)n(-c2ccc(Oc3nc4ccccc4n3C)cc2)c2ncccc21` [Example 19, 1-ethyl-3-{4-[(1-methyl-1H-benzimidazol-2-yl)oxy]phenyl}-1,3-dihydro-2H-imidazo[4,5-b]pyridin-2-one], the melting point is 184 to 186 °C.
In the case of `CCn1c(=O)n(-c2ccc(Oc3nc4ccccc4n3C)cc2)c2ncc(F)cc21` [Example 132, 1-ethyl-6-fluoro-3-{4-[(1-methyl-1H-benzimidazol-2-yl)oxy]phenyl}-1,3-dihydro-2H-imidazo[4,5-b]pyridin-2-one], on Human PDE10A enzyme, the inhibition at 1 µM came out at 104% and the inhibition at 10 µM came out at 107%.
